Measured values published in the NIST ThermoML archive (doi:10.1021/je0341256).
“And” between values parts separate entries of the source, which are not always exact repeats. Equal entries are not always repeated. ± gives the expanded uncertainty stated by the source.

Conditions: Liquid, Closed cell (Static) method

SMILES | vapor or sublimation pressure (332.06 K) | vapor or sublimation pressure (332.08 K) | further results
C/C=C/C [(E)-2-butene] | 605.74 ± 2.1 kPa | 606.44 ± 2.1 kPa and 606.14 ± 2.1 kPa | vapor or sublimation pressure (332.04 K): 605.54 ± 2.1 kPa; vapor or sublimation pressure (332.07 K): 606.94 ± 2.1 kPa
CCC(C)O (centres undefined) [butan-2-ol] |  | 17.27 ± 0.4 kPa | 
CC(C)(C)O [2-methylpropan-2-ol] | 36.97 ± 0.42 kPa |  | 
CC(C)O [propan-2-ol] |  |  | vapor or sublimation pressure (332.03 K): 36.47 ± 0.42 kPa
CCO [ethanol] | 44.67 ± 0.43 kPa |  | 
CO [methanol] |  | 80.97 ± 0.48 kPa | 
